From US6046171A, “6,11-bridged erythromycin derivatives” (priority 1998, dated 2000)
≈ marks a conversion by molar mass, not a printed value.

Key:
Type in all cases: cell-based
[1] = test system: Staphylococcus aureus ATCC 6538P; assay: in vitro antibacterial MIC, agar dilution (BHI agar, Steers replicator); settings: organism code AA; 35-37° C., 20 to 24 hours; unit assumed
Protocol: (§1) Representative compounds of the present invention were assayed in vitro for antibacterial activity as follows: Twelve petri dishes containing successive aqueous dilutions of the test compound mixed with 10 mL of sterilized Brain Heart Infusion (BHI) agar (Difco 0418-01-5) were prepared. Each plate was inoculated with 1:100 (or 1:10 for slow-growing strains, such as Micrococcus and Streptococcus) dilutions of up to 32 different microorganisms, using a Steers replicator block. […] In addition, a control plate, using BHI agar containing no test compound, was prepared and incubated at the beginning and end of each test.
(§2) An additional plate containing a compound having known susceptibility patterns for the organisms being tested and belonging to the same antibiotic class as the test compound was also prepared and incubated as a further control, as well as to provide test-to-test comparability.
(§3) After incubation, each plate was visually inspected. The minimum inhibitory concentration (MIC) was defined as the lowest concentration of drug yielding no growth, a slight haze, or sparsely isolated colonies on the inoculum spot as compared to the growth control.

[2] = test system: Enterococcus faecium ATCC 8Q43; assay: in vitro antibacterial MIC, agar dilution; settings: organism code II; 35-37° C., 20 to 24 hours; unit assumed
Protocol: as §1, §2, §3

Escherichia coli SS = assay: in vitro antibacterial MIC, agar dilution; settings: organism code RR; 35-37° C., 20 to 24 hours; unit assumed
Protocol: as §1, §2, §3

[3] = test system: Haemophilis Influenzae DILL AMP R; assay: in vitro antibacterial MIC, agar dilution; settings: organism code WW; 35-37° C., 20 to 24 hours; unit assumed
Protocol: as §1, §2, §3

[4] = test system: Micrococcus luteus ATCC 4698; assay: in vitro antibacterial MIC, agar dilution; settings: organism code PP; 35-37° C., 20 to 24 hours; unit assumed
Protocol: as §1, §2, §3

[5] = test system: Nocardia Asteroides ATCC9970; assay: in vitro antibacterial MIC, agar dilution; settings: organism code VV; 35-37° C., 20 to 24 hours; unit assumed
Protocol: as §1, §2, §3

[6] = test system: Staphylococcus aureus CMX 553; assay: in vitro antibacterial MIC, agar dilution; settings: organism code FF; 35-37° C., 20 to 24 hours; unit assumed
Protocol: as §1, §2, §3

[7] = test system: Staphylococcus aureus CMX 642A; assay: in vitro antibacterial MIC, agar dilution; settings: organism code DD; 35-37° C., 20 to 24 hours; unit assumed
Protocol: as §1, §2, §3

[8] = test system: Staphylococcus epidermidis 3519; assay: in vitro antibacterial MIC, agar dilution; settings: organism code HH; 35-37° C., 20 to 24 hours; unit assumed
Protocol: as §1, §2, §3

[9] = test system: Streptococcus Pheumoniae 5649; assay: in vitro antibacterial MIC, agar dilution; settings: organism code ZZA; 35-37° C., 20 to 24 hours; unit assumed
Protocol: as §1, §2, §3

[10] = test system: Streptococcus Pheumoniae 5979; assay: in vitro antibacterial MIC, agar dilution; settings: organism code ZZ; 35-37° C., 20 to 24 hours; unit assumed
Protocol: as §1, §2, §3

[11] = test system: Streptococcus pyogenes EES61; assay: in vitro antibacterial MIC, agar dilution; settings: organism code LL; 35-37° C., 20 to 24 hours; unit assumed
Protocol: as §1, §2, §3

[12] = test system: Streptococcus pyogenes PIU 2548; assay: in vitro antibacterial MIC, agar dilution; settings: organism code NN; 35-37° C., 20 to 24 hours; unit assumed
Protocol: as §1, §2, §3

[13] = test system: Micrococcus luteus ATCC 9341; assay: in vitro antibacterial MIC, agar dilution; settings: organism code OO; 35-37° C., 20 to 24 hours; unit assumed
Protocol: as §1, §2, §3

[14] = test system: Mycobacterium smegmatis ATCC 114; assay: in vitro antibacterial MIC, agar dilution; settings: organism code UU; 35-37° C., 20 to 24 hours; unit assumed
Protocol: as §1, §2, §3

[15] = test system: Staphylococcus aureus A5177; assay: in vitro antibacterial MIC, agar dilution; settings: organism code BB; 35-37° C., 20 to 24 hours; unit assumed
Protocol: as §1, §2, §3

[16] = test system: Staphylococcus aureus NCTC10649M; assay: in vitro antibacterial MIC, agar dilution; settings: organism code EE; 35-37° C., 20 to 24 hours; unit assumed
Protocol: as §1, §2, §3

[17] = test system: Streptococcus agalactiae CMX 508; assay: in vitro antibacterial MIC, agar dilution; settings: organism code KK; 35-37° C., 20 to 24 hours; unit assumed
Protocol: as §1, §2, §3

[18] = test system: Streptococcus bovis A-5169; assay: in vitro antibacterial MIC, agar dilution; settings: organism code JJ; 35-37° C., 20 to 24 hours; unit assumed
Protocol: as §1, §2, §3

[19] = test system: Streptococcus pyogenes 930; assay: in vitro antibacterial MIC, agar dilution; settings: organism code MM; 35-37° C., 20 to 24 hours; unit assumed
Protocol: as §1, §2, §3

| SMILES | MIC [1] | MIC [2] | MIC (Escherichia coli SS) | MIC [3] | MIC [4] | MIC [5] | MIC [6] | MIC [7] | MIC [8] | MIC [9] | MIC [10] | MIC [11] | MIC [12] | MIC [13] | MIC [14] | MIC [15] | MIC [16] | MIC [17] | MIC [18] | MIC [19] |
| --- | --- | --- | --- | --- | --- | --- | --- | --- | --- | --- | --- | --- | --- | --- | --- | --- | --- | --- | --- | --- |
| CC[C@H]1OC(=O)[C@H](C)[C@@H](O[C@H]2C[C@@](C)(OC)[C@@H](O)[C@H](C)O2)[C@H](C)[C@@H](O[C@@H]2O[C@H](C)C[C@H](N(C)C)[C@H]2O)[C@@]2(C)C[C@@H](C)C(=O)[C@H](C)[C@H]3N(CCNC(=O)c4ccccc4C=CCO2)C(=O)O[C@]13C [Example 4] | 1.56 µg/mL (≈ 1.65 µM) | 0.39 µg/mL (≈ 0.413 µM) | 6.2 µg/mL (≈ 6.57 µM) | 16 µg/mL (≈ 16.9 µM) | 1.56 µg/mL (≈ 1.65 µM) | 0.2 µg/mL (≈ 0.212 µM) | 1.56 µg/mL (≈ 1.65 µM) | 1.56 µg/mL (≈ 1.65 µM) | 1.56 µg/mL (≈ 1.65 µM) | 16 µg/mL (≈ 16.9 µM) | > 128 µg/mL | 0.39 µg/mL (≈ 0.413 µM) | 12.5 µg/mL (≈ 13.2 µM) |  |  |  |  |  |  |  |
| CC[C@H]1OC(=O)[C@H](C)[C@@H](O[C@H]2C[C@@](C)(OC)[C@@H](O)[C@H](C)O2)[C@H](C)[C@@H](O[C@@H]2O[C@H](C)C[C@H](N(C)C)[C@H]2O)[C@@]2(C)C[C@@H](C)C(=O)[C@H](C)[C@H]3N(CCNC(=O)Cc4ccccc4C=CCO2)C(=O)O[C@]13C [Example 6] | 0.78 µg/mL (≈ 0.814 µM) | 0.39 µg/mL (≈ 0.407 µM) | 3.1 µg/mL (≈ 3.24 µM) | 8 µg/mL (≈ 8.35 µM) | 0.78 µg/mL (≈ 0.814 µM) | 0.39 µg/mL (≈ 0.407 µM) | 0.78 µg/mL (≈ 0.814 µM) | 1.56 µg/mL (≈ 1.63 µM) | 0.78 µg/mL (≈ 0.814 µM) | 16 µg/mL (≈ 16.7 µM) | > 128 µg/mL | 0.2 µg/mL (≈ 0.209 µM) | 12.5 µg/mL (≈ 13 µM) | 0.1 µg/mL (≈ 0.104 µM) | 0.39 µg/mL (≈ 0.407 µM) | 12.5 µg/mL (≈ 13 µM) | 1.56 µg/mL (≈ 1.63 µM) | 0.1 µg/mL (≈ 0.104 µM) | 0.1 µg/mL (≈ 0.104 µM) |  |
| CC[C@H]1OC(=O)[C@H](C)[C@@H](O[C@H]2C[C@@](C)(OC)[C@@H](OC(C)=O)[C@H](C)O2)[C@H](C)[C@@H](O[C@@H]2O[C@H](C)C[C@H](N(C)C)[C@H]2O)[C@@]2(C)C[C@@H](C)C(=O)[C@H](C)[C@H]3N(CCNCc4cccc(c4)C=CCO2)C(=O)O[C@]13C [Example 10] | 6.2 µg/mL (≈ 6.38 µM) | 0.78 µg/mL (≈ 0.802 µM) | 6.2 µg/mL (≈ 6.38 µM) |  | 1.56 µg/mL (≈ 1.6 µM) | 1.56 µg/mL (≈ 1.6 µM) | 6.2 µg/mL (≈ 6.38 µM) | 6.2 µg/mL (≈ 6.38 µM) | 6.2 µg/mL (≈ 6.38 µM) | 8 µg/mL (≈ 8.23 µM) |  | 0.78 µg/mL (≈ 0.802 µM) | 6.2 µg/mL (≈ 6.38 µM) | 0.39 µg/mL (≈ 0.401 µM) | 0.39 µg/mL (≈ 0.401 µM) | 25 µg/mL (≈ 25.7 µM) | 6.2 µg/mL (≈ 6.38 µM) | 0.39 µg/mL (≈ 0.401 µM) | 0.39 µg/mL (≈ 0.401 µM) | 25 µg/mL (≈ 25.7 µM) |
| CC[C@H]1OC(=O)[C@H](C)[C@@H](O[C@H]2C[C@@](C)(OC)[C@@H](O)[C@H](C)O2)[C@H](C)[C@@H](O[C@@H]2O[C@H](C)C[C@H](N(C)C)[C@H]2O)[C@@]2(C)C[C@@H](C)C(=O)[C@H](C)[C@H]3N(CCNCc4cccc(c4)C=CCO2)C(=O)O[C@]13C [Example 11] |  | 0.2 µg/mL (≈ 0.215 µM) | 6.2 µg/mL (≈ 6.67 µM) | 32 µg/mL (≈ 34.4 µM) |  |  |  |  |  | 32 µg/mL (≈ 34.4 µM) | > 128 µg/mL |  |  |  |  |  |  |  |  |  |
| CC[C@H]1OC(=O)[C@H](C)C(=O)[C@H](C)[C@@H](O[C@@H]2O[C@H](C)C[C@H](N(C)C)[C@H]2O)[C@@]2(C)C[C@@H](C)C(=O)[C@H](C)[C@H]3N(CCOCc4ccccc4C=CCO2)C(=O)O[C@]13C [Example 12] | 0.78 µg/mL (≈ 1.01 µM) | 0.1 µg/mL (≈ 0.13 µM) | 1.56 µg/mL (≈ 2.02 µM) | 16 µg/mL (≈ 20.8 µM) |  | 0.78 µg/mL (≈ 1.01 µM) | 0.78 µg/mL (≈ 1.01 µM) | 0.78 µg/mL (≈ 1.01 µM) | 0.78 µg/mL (≈ 1.01 µM) | 1 µg/mL (≈ 1.3 µM) | 128 µg/mL (≈ 166 µM) |  |  |  | 0.78 µg/mL (≈ 1.01 µM) | 0.78 µg/mL (≈ 1.01 µM) | 0.78 µg/mL (≈ 1.01 µM) |  |  | 50 µg/mL (≈ 64.9 µM) |
